According to PubChem BioAssay AID328 (DTP/NCI, 2004):
Several values for one entry are separate records, joined by “and”; a condition that tells them apart may be missing. Equal values may be shown once. Inconclusive results and toxic doses are left out. How the source made its calls: active means survival T/C of 150% or more; inactive means T/C below 125% in these data.

Test system: BDF1 mice, P388 leukemia ip, median survival T/C
Assay: NCI In Vivo Anticancer Drug Screen. Data for tumor model P388 Leukemia (intraperitoneal) in B6D2F1 (BDF1) mice
Settings: endpoint: median survival time, higher = longer survival
How it was run: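 Compound-treated tumour-bearing mice were compared with vehicle-treated controls. Survival was recorded, and the value is the treated-group measurement divided by the control-group measurement (T/C).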

[1] = dose: 150.0 mg/kg/injection, schedule: Q01DX009 (ip), vehicle: saline with Tween-80

Measured: T/C

CCC(=O)N(c1ccccc1)c1ccccc1
inactive: dose: 75.0 mg/kg/injection, schedule: Q01DX009 (ip), vehicle: saline with Tween-80 99 % of control | [1] 100 % of control | dose: 300.0 mg/kg/injection, schedule: Q01DX009 (ip), vehicle: saline with Tween-80 108 % of control

CCCCCCCCCC(=O)CCCCCCC
inactive: dose: 50.0 mg/kg/injection, schedule: Q01DX009 (ip), vehicle: other 100 % of control | dose: 100.0 mg/kg/injection, schedule: Q01DX009 (ip), vehicle: other 100 % of control | dose: 100.0 mg/kg/injection, schedule: Q04DX003 (ip), vehicle: other 100 % of control | dose: 118.0 mg/kg/injection, schedule: Q04DX003 (ip), vehicle: other 104 % of control | dose: 178.0 mg/kg/injection, schedule: Q04DX003 (ip), vehicle: other 109 % of control and 118 % of control | dose: 200.0 mg/kg/injection, schedule: Q01DX009 (ip), vehicle: other 104 % of control | dose: 266.0 mg/kg/injection, schedule: Q04DX003 (ip), vehicle: other 95 % of control | dose: 400.0 mg/kg/injection, schedule: Q01DX009 (ip), vehicle: other 95 % of control | dose: 400.0 mg/kg/injection, schedule: Q04DX003 (ip), vehicle: other 109 % of control and 118 % of control

CC1(C)N=C(N)N=C(N)N1c1ccc(C(N)=O)cc1
inactive: dose: 50.0 mg/kg/injection, schedule: Q01DX005 (ip), vehicle: Klucel (hydroxypropylcellulose) (HPC) 109 % of control | dose: 100.0 mg/kg/injection, schedule: Q01DX005 (ip), vehicle: Klucel (hydroxypropylcellulose) (HPC) 112 % of control

CN(C)c1cc2c3c(c1)CCCN3CCC2
inactive: dose: 3.13 mg/kg/injection, schedule: Q01DX009 (ip), vehicle: saline 95 % of control | dose: 6.25 mg/kg/injection, schedule: Q01DX009 (ip), vehicle: saline 100 % of control | dose: 12.5 mg/kg/injection, schedule: Q01DX009 (ip), vehicle: saline 113 % of control

Clc1nnc(Cl)c(Cl)c1Cl
inactive: dose: 0.22 mg/kg/injection, schedule: Q01DX009 (ip), vehicle: Klucel (hydroxypropylcellulose) (HPC) 100 % of control | dose: 0.22 mg/kg/injection, schedule: Q04DX003 (ip), vehicle: Klucel (hydroxypropylcellulose) (HPC) 100 % of control | dose: 0.45 mg/kg/injection, schedule: Q01DX009 (ip), vehicle: Klucel (hydroxypropylcellulose) (HPC) 91 % of control | dose: 0.45 mg/kg/injection, schedule: Q04DX003 (ip), vehicle: Klucel (hydroxypropylcellulose) (HPC) 118 % of control | dose: 0.9 mg/kg/injection, schedule: Q01DX009 (ip), vehicle: Klucel (hydroxypropylcellulose) (HPC) 91 % of control | dose: 0.9 mg/kg/injection, schedule: Q04DX003 (ip), vehicle: Klucel (hydroxypropylcellulose) (HPC) 104 % of control | dose: 1.3 mg/kg/injection, schedule: Q04DX003 (ip), vehicle: Klucel (hydroxypropylcellulose) (HPC) 104 % of control | dose: 2.0 mg/kg/injection, schedule: Q04DX003 (ip), vehicle: Klucel (hydroxypropylcellulose) (HPC) 113 % of control | dose: 2.8 mg/kg/injection, schedule: Q01DX009 (ip), vehicle: saline 87 % of control | dose: 3.0 mg/kg/injection, schedule: Q04DX003 (ip), vehicle: Klucel (hydroxypropylcellulose) (HPC) 104 % of control

c1ccc(C2=C(c3ccccc3)c3cccc4cccc2c34)cc1
inactive: dose: 100.0 mg/kg/injection, schedule: Q01DX001 (ip), vehicle: Klucel (hydroxypropylcellulose) (HPC) 95 % of control and 110 % of control | dose: 100.0 mg/kg/injection, schedule: Q04DX003 (ip), vehicle: Klucel (hydroxypropylcellulose) (HPC) 115 % of control | dose: 200.0 mg/kg/injection, schedule: Q01DX001 (ip), vehicle: Klucel (hydroxypropylcellulose) (HPC) 105 % of control | dose: 200.0 mg/kg/injection, schedule: Q04DX003 (ip), vehicle: Klucel (hydroxypropylcellulose) (HPC) 120 % of control | dose: 400.0 mg/kg/injection, schedule: Q01DX001 (ip), vehicle: Klucel (hydroxypropylcellulose) (HPC) 95 % of control and 105 % of control | dose: 400.0 mg/kg/injection, schedule: Q04DX003 (ip), vehicle: Klucel (hydroxypropylcellulose) (HPC) 110 % of control

CCc1nc2ccccc2c(=O)n1C
inactive: dose: 50.0 mg/kg/injection, schedule: Q01DX009 (ip), vehicle: saline with Tween-80 101 % of control | dose: 200.0 mg/kg/injection, schedule: Q01DX009 (ip), vehicle: saline with Tween-80 101 % of control

O=C(NC1=NN(c2ccccc2)C(=O)C1)c1ccccc1
inactive: dose: 37.5 mg/kg/injection, schedule: Q01DX009 (ip), vehicle: saline with Tween-80 105 % of control | [1] 96 % of control
